# Results: patent EP0110748A1, “Derivatives of phenyl-(3-aminopropyl) ketone, their therapeutical use and process for their preparation” (LABORATOIRE L. LAFON Société anonyme dite:, priority 1982, dated 1984)
# Read-outs that look alike come from different tables or passages of the source.
# What was measured:
# chiens anesthésiés [1] = assay: Femoral vasodilator action by intravenous infusion in anaesthetised dogs; assay type: in vivo, chien
# Method: Deux chiens (poids moyen 12,4 kg) anesthésiés au pento- barbital reçoivent le CRL 41 080 par voie intraveineuse, en perfusion de 6 min, aux doses successives de 2 fois 1 mg/kg, puis 2 et 4 mg/kg toutes les 60 min. Pour comparaison, ces animaux reçoivent en fin d'essai une perfusion de 6 mg/kg I.V. d'un produit de référence connu, le LL 1656 précité.
# chiens anesthésiés [2] = assay: Vasodilator action by intraduodenal route in anaesthetised dogs; assay type: in vivo, chien; settings: voie intraduodénale
# From the text: On mesure la pression artérielle, la fréquence cardiaque, le débit artériel fémoral, le débit artériel vertébral, les températures rectale et cutanée.
# [3] = Antispasmodic properties (no method described)
# [4] = Solubility in water (observation on the isolated product); assay type: physicochemical; settings: poudre blanche
# Method: On fait passer entre -5°C et 0°C pendant 2,5 h un courant d'acide chlorhydrique sec au sein d'une solution de 16,8 g (0,10 mole) de 1,3,5-triméthoxybenzène et de 16,6 g (0,10 mole) de 4-hexaméthylèneimino-butyronitrile en solution dans 115 ml de chlorobenzène anhydre. On abandonne la suspension au froid entre 0°C et +4°C une nuit et on extrait le milieu réactionnel par de l'eau. On porte la phase aqueuse au reflux pendant 1 h, on alcalinise par de la soude concentrée et on extrait le précipité par de l'éther diéthylique pour donner 29,8 g d'une huile jaune pale. Cette huile est traitée dans l'éther diéthylique par de l'éthanol chlorhydrique. […] Finst (^Kofler) = 150°C.
# chien anesthésié [5] = assay: Minimal dose inducing a clear femoral vasodilator action in the anaesthetised dog; assay type: in vivo; settings: Canis lupus familiaris, lot de 5 chiens
# From the text: (§1) Le tableau I concerne la toxicité chez la souris mâle, d'une part, et la dose minimale induisant chez le chien anesthésié une action vasodilatatrice fémorale nette, d'autre part. La DL-50 I.V. a été déterminée sur des lots de 10 souris mâles; la dose minimale vasodilatatrice a été déterminée sur un lot de 5 chiens servant de témoins par rapport à eux-mêmes et recevant chaque dose de produit à tester toutes les 2,5 heures.
# chiens = assay: Duration of the vasodilator action, repeated intraduodenal administration in dogs; assay type: in vivo, chien
# Method: Trois chiens (poids moyen 11,1 kg) reçoivent le CRL 41 080 par voie intraduodénale à la dose de 5 mg/kg à deux reprises (délai entre les deux administrations : 90 min) puis 6 mg/kg I.D. de LL 1656 et, 2 heures plus tard, une nouvelle administration de 5 mg/kg I.D. de CRL 41 080.
# [6] = Acute toxicity, DL-50 I.V. in male mice; settings: mouse, in vivo, iv, lots de 10 souris mâles
# From the text: as §1
# chien anesthésié [7] = assay: Cardiovascular properties in the anaesthetised dog, I.V. (arterial pressures, heart rate, femoral arterial flow); assay type: in vivo
# From the text: Le tableau II concerne les variations des pressions […]. systolique, diastolique, […]équence cardiaque et du débit artériel fémoral.
# homme = assay: Clinical trials in man; assay type: in vivo; settings: voie orale (trois gélules par jour de 100 mg) et voie injectable (I.V. ou I.M., une ampoule par jour de 40 mg)
# [8] = I.V., perfusion de 6 min, 2 fois 1 mg/kg puis 2 et 4 mg/kg, deux chiens
# [9] = intraduodenal, par voie I.D., '-(d)' = pas d'action vasodilatatrice par voie I.D., read-out: dose minimale induisant chez le chien anesthésié une action vasodilatatrice fémorale par voie I.D.
# [10] = iv, par voie I.V., read-out: dose minimale induisant chez le chien anesthésié une action vasodilatatrice fémorale par voie I.V.
# [11] = 5 mg/kg I.D., first administration
# [12] = 5 mg/kg I.D., second administration
# [13] = dose supplémentaire de 5 mg/kg I.D., 2 heures after LL 1656
# [14] = 6 mg/kg I.D., after two administrations of CRL 41 080
structure (smiles),measurement,setting,value
"COc1cc(OC)c(C(=O)CCCN2CCCCCC2)c(OC)c1 [CRL 41080, chlorhydratede (2,4,6-triméthoxyphényl)-(3-hexaméthylèneiminopropyl)-cétone]",débit fémoral,chiens anesthésiés [1]; [8],le débit fémoral augmente pendant la durée de la perfusion dès 1 mg/kg
same,"pression artérielle, fréquence cardiaque",chiens anesthésiés [1]; [8],ne modifie pas la pression artérielle ni la fréquence cardiaque
same,débit vertébral,"chiens anesthésiés [2]; doses successives 0,5 - 10 mg/kg","il semble que le débit vertébral soit diminué, mais cet effet n'est pas statistiquement significatif"
same,débit fémoral,"chiens anesthésiés [2]; doses successives 0,5 - 10 mg/kg, quatre chiens",augmente nettement le débit fémoral à partir de la dose de 5 mg/kg
same,durée de l'effet sur le débit fémoral,chiens anesthésiés [2]; à partir de 5 mg/kg,plus d'une heure
same,propriétés antispasmodiques,[3],ne présente pas les propriétés antispasmodiques
same,solubilité dans l'eau,[4],soluble dans l'eau
same,minimal effective dose,chien anesthésié [5]; [9],5 mg/kg
same,minimal effective dose,chien anesthésié [5]; [10],1 mg/kg
same,autres paramètres mesurés,chiens; [11],ne sont pas modifiés
same,time at which the effect on débit fémoral has disappeared,chiens; [11],120 min
same,time at which the effect on débit fémoral has lost half of its intensity,chiens; [11],60 min
same,time of maximal effect on débit fémoral,chiens; [11],30 min
same,débit fémoral,"chiens; 5 mg/kg I.D., first administration, trois chiens",augmente le débit fémoral
same,débit vertébral,"chiens; 5 mg/kg I.D., repeated",ne diminue pas le débit vertébral
same,persistence of the effect on débit fémoral,chiens; [12],encore présent à 120 min
same,time of maximal effect on débit fémoral,chiens; [12],30 min
same,débit fémoral,"chiens; 5 mg/kg I.D., second administration (90 min after the first)",effet plus intense sur le débit fémoral
same,débit fémoral,chiens; [13],n'augmente pas davantage le débit fémoral
same,"pression artérielle, fréquence cardiaque",chiens; [13],entraîne une hypotension et une bradycardie
same,LD50,[6],96 ± 3 mg/kg
same,"Variation 0,25 h après administration P.A. systolique","chien anesthésié [7]; 1 mg/kg I.V., 0,25 h après administration",0
same,"Variation 0,25 h après administration P.A. moyenne","chien anesthésié [7]; 2 mg/kg I.V., 0,25 h après administration",0
same,résultats des essais cliniques chez l'homme,homme,bons résultats
"COc1cc(OC)c(C(=O)CCCN2CCCCC2)c(OC)c1 [LL 1647, chlorhydratede (2,4,6-triméthoxyphényl)-(3-pipéridi-nopropyl)-cétone]",minimal effective dose,chien anesthésié [5]; [10],5 mg/kg
same,LD50,[6],68 ± 4 mg/kg
"COc1cc(OC)c(C(=O)CCCN2CCCC2)c(OC)c1 [LL 1656, chlorhydratede (2,4,6-triméthoxyphényl)-(3-pyrrolidinopropyl)-cétone, reference compound]",débit fémoral,"chiens anesthésiés [1]; perfusion de 6 mg/kg I.V. en fin d'essai, comparison with 1 mg/kg of CRL 41 080",augmente moins le débit fémoral que 1 mg/kg de CRL 41 080
same,minimal effective dose,chien anesthésié [5]; [9],6 mg/kg
same,minimal effective dose,chien anesthésié [5]; [10],5 mg/kg
same,débit fémoral,chiens; [14],augmentation de débit fémoral d'intensité moyenne
same,time of maximal effect on débit fémoral,chiens; [14],120 min
same,LD50,[6],60 ± 2.2 mg/kg
same,"Variation 0,25 h après administration Fréquence cardiaque","chien anesthésié [7]; 6 mg/kg I.V., 0,25 h après administration",0
